Tested on: SEM cells
Experiment: cell viability relative to DMSO control; higher = less cytotoxic
Details: 48 h
Summary of the method: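 NOMO1, SEM and P12-Ichikawa leukemia cells spent at least four passages adapting to each medium before use. They were seeded at 500 cells/well (NOMO1, SEM) or 1000 cells/well (P12-Ichikawa) in 5 μl in 1536-well plates and pin-dosed with library compounds in DMSO at 11 threefold steps from 47 μM down to 0.79 nM. After 48 h at 37°C, CellTiter-Glo One luminescence was read. Viability is reported as a percentage of the DMSO wells on each plate, with cell-free wells as background.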

[1] = HPLM + 10% dialyzed FBS, 0.000781 µM
[2] = HPLM + 10% dialyzed FBS, 0.00234 µM
[3] = HPLM + 10% dialyzed FBS, 0.00702 µM
[4] = HPLM + 10% dialyzed FBS, 0.0211 µM
[5] = HPLM + 10% dialyzed FBS, 0.0632 µM
[6] = HPLM + 10% dialyzed FBS, 0.19 µM
[7] = HPLM + 10% dialyzed FBS, 0.569 µM
[8] = HPLM + 10% dialyzed FBS, 1.71 µM
[9] = HPLM + 10% dialyzed FBS, 5.12 µM
[10] = HPLM + 10% dialyzed FBS, 15.4 µM
[11] = HPLM + 10% dialyzed FBS, 46.1 µM
[12] = RPMI 5 mM glucose + 10% FBS, 0.000781 µM
[13] = RPMI 5 mM glucose + 10% FBS, 0.00234 µM
[14] = RPMI 5 mM glucose + 10% FBS, 0.00702 µM
[15] = RPMI 5 mM glucose + 10% FBS, 0.0211 µM
[16] = RPMI 5 mM glucose + 10% FBS, 0.0632 µM
[17] = RPMI 5 mM glucose + 10% FBS, 0.19 µM
[18] = RPMI 5 mM glucose + 10% FBS, 0.569 µM
[19] = RPMI 5 mM glucose + 10% FBS, 1.71 µM
[20] = RPMI 5 mM glucose + 10% FBS, 5.12 µM
[21] = RPMI 5 mM glucose + 10% FBS, 15.4 µM
[22] = RPMI 5 mM glucose + 10% FBS, 46.1 µM
[23] = RPMI 5 mM glucose + 10% dialyzed FBS, 0.000781 µM
[24] = RPMI 5 mM glucose + 10% dialyzed FBS, 0.00234 µM
[25] = RPMI 5 mM glucose + 10% dialyzed FBS, 0.00702 µM
[26] = RPMI 5 mM glucose + 10% dialyzed FBS, 0.0211 µM
[27] = RPMI 5 mM glucose + 10% dialyzed FBS, 0.0632 µM
[28] = RPMI 5 mM glucose + 10% dialyzed FBS, 0.19 µM
[29] = RPMI 5 mM glucose + 10% dialyzed FBS, 0.569 µM
[30] = RPMI 5 mM glucose + 10% dialyzed FBS, 1.71 µM
[31] = RPMI 5 mM glucose + 10% dialyzed FBS, 5.12 µM
[32] = RPMI 5 mM glucose + 10% dialyzed FBS, 15.4 µM
[33] = RPMI 5 mM glucose + 10% dialyzed FBS, 46.1 µM

Row | SMILES | cell viability [1] [%] | cell viability [2] [%] | cell viability [3] [%] | cell viability [4] [%] | cell viability [5] [%] | cell viability [6] [%] | cell viability [7] [%] | cell viability [8] [%] | cell viability [9] [%] | cell viability [10] [%] | cell viability [11] [%] | cell viability [12] [%] | cell viability [13] [%] | cell viability [14] [%] | cell viability [15] [%] | cell viability [16] [%] | cell viability [17] [%] | cell viability [18] [%] | cell viability [19] [%] | cell viability [20] [%] | cell viability [21] [%] | cell viability [22] [%] | cell viability [23] [%] | cell viability [24] [%] | cell viability [25] [%] | cell viability [26] [%] | cell viability [27] [%] | cell viability [28] [%] | cell viability [29] [%] | cell viability [30] [%] | cell viability [31] [%] | cell viability [32] [%] | cell viability [33] [%]
1 | C[C@@H]1CN(CC(=O)N2CC(C)(C)c3ncc(Cc4ccc(F)cc4)cc32)[C@@H](CN2CCOC[C@H]2C)CN1 | 83.8 | 105 | 48 | 115 | 105 | 95.2 | 113 | 85 | 105 | 104 | 73 | 76.3 | 96.3 | 30.4 | 104 | 92.5 | 88.9 | 97.8 | 89.2 | 110 | 80.4 | 54.9 | 86.9 | 116 | 40.8 | 117 | 103 | 114 | 111 | 104 | 111 | 94.5 | 75.6
2 | CC1(C)CC(=O)c2c(C(F)(F)F)nn(-c3ccc(C(N)=O)c(NC4CCC(OC(=O)CN)CC4)c3)c2C1 (stereo not drawn) | 106 | 104 | 113 | 112 | 114 | 73.2 | 35.7 | 20.2 | 17 | 17.3 | 17.8 | 108 | 99.1 | 105 | 120 | 112 | 73.3 | 37.3 | 23.9 | 18.4 | 15.3 | 16.1 | 94.8 | 95.2 | 100 | 89.2 | 89.5 | 63.3 | 34.5 | 20.5 | 17.3 | 14.3 | 14.7
3 | CN(C(=O)c1ccc(F)cc1C(F)(F)F)C1CCN(c2nnc(-c3ccnn3C)c3ccccc23)CC1 | 50.4 | 67.5 | 60.6 | 62.4 | 79.4 | 85.1 | 69.4 | 78.6 | 79 | 80.6 | 49.2 | 69.2 | 74.8 | 71 | 85.5 | 83.3 | 77.6 | 91 | 86.2 | 74.1 | 86.8 | 59.8 | 56.3 | 61.4 | 61.9 | 70.8 | 66.7 | 80.4 | 65 | 86.1 | 79.2 | 83.3 | 41
4 | Nc1cccc(-c2cc3c(Oc4cccc(O)c4)ncnc3[nH]2)c1 |  |  |  |  |  |  |  |  |  |  |  | 70.7 | 122 | 132 | 143 | 145 | 123 | 132 | 121 | 88.8 | 62.3 | 9.75 | 69.1 | 123 | 132 | 125 | 131 | 116 | 133 | 121 | 80.4 | 56 | 13.4
5 | CN(C)CCC=C1C2=C(C=CC=C2)\C=C/C3=C1C=CC=C3 | 108 | 115 | 120 | 100 | 116 | 124 | 116 | 101 | 108 | 99.1 | 72.2 | 108 | 116 | 106 | 109 | 109 | 112 | 93.1 | 68.7 | 102 | 101 | 84.9 | 112 | 108 | 129 | 130 | 119 | 128 | 112 | 106 | 116 | 108 | 81.7
6 | O=C(NC1CC1)c1cccc(-c2ccc3c(NC(=O)C4CC4)n[nH]c3c2)c1 | 98.9 | 98.1 | 107 | 96.2 | 97.6 | 95.1 | 97.2 | 98.5 | 90 | 62.8 | 18.8 | 97.1 | 106 | 109 | 107 | 103 | 98.4 | 103 | 113 | 89.4 | 51.3 | 11.1 | 103 | 108 | 104 | 104 | 116 | 115 | 102 | 104 | 86.1 | 56.9 | 18.2
7 | CCOC(=O)c1ncn2c1CN(C)C(=O)c1cc(F)ccc1-2 | 78.9 | 104 | 87.2 | 93.3 | 92.9 | 94.3 | 97.2 | 90.7 | 79.8 | 84.6 | 52.9 | 94.6 | 111 | 112 | 92.5 | 105 | 98.6 | 98.8 | 93.6 | 67.5 | 57.1 | 46.8 | 99 | 107 | 109 | 113 | 116 | 131 | 117 | 87.3 | 75.6 | 79.6 | 43.9
8 | CC1=CC2=C(O1)C(=C3OC(=O)\C=C(C)/C3=C2)C | 70.2 | 81.2 | 86.8 | 88.7 | 84 | 84.5 | 83.8 | 92.5 | 90.6 | 88.9 | 74.1 | 72 | 91.5 | 93.7 | 96.8 | 86.7 | 103 | 98.3 | 103 | 105 | 92.2 | 91 | 89 | 100 | 94.8 | 102 | 93.4 | 107 | 109 | 104 | 121 | 111 | 105

— the supplement of paper PMC11451515
